From ChEMBL document CHEMBL1134253, “HIV Rev peptides conjugated with peptide nucleic acids and their efficient binding to RRE RNA” (Bioorg Med Chem Lett, 2001) come the findings set out here.

As usually defined, the Kd is the free concentration of one partner at which half of the binding sites on the other are occupied at equilibrium, for simple one-to-one binding.

The structures appear in SMILES notation.

Assay [1] has as its target Rev responsive element (RRE) RNA. The assay is described as follows: Dissociation constant of compound with Rev-responsive element (RRE) IIB RNA was determined by the competition assay. The assay is classed as nucleic-acid assay.
The subject of assay [2] is Rev responsive element (RRE) RNA. In words: Ratio of the dissociation constant between Rev37-50 and the PNA-peptide. It is filed as nucleic-acid assay.

`C[C@H](NC(=O)CN(CCNC(=O)CCC(=O)O)C(=O)Cn1ccc(N)nc1=O)C(=O)N[C@@H](CCCNC(=N)N)C(=O)N[C@@H](CCCNC(=N)N)C(=O)N[C@@H](CC(N)=O)C(=O)N[C@@H](CCCNC(=N)N)C(=O)N[C@@H](CCCNC(=N)N)C(=O)N[C@@H](CCCNC(=N)N)C(=O)N[C@@H](CCCNC(=N)N)C(=O)N[C@@H](Cc1c[nH]c2ccccc12)C(=O)N[C@@H](CCCNC(=N)N)C(=O)N[C@@H](CCC(=O)O)C(=O)N[C@@H](CCCNC(=N)N)C(=O)N[C@@H](CCC(N)=O)C(=O)N[C@H](CCCNC(=N)N)C(N)=O`: in assay [1], the Kd was determined as 31 nM. The Ratio in assay [2] is 2.8.

The molecule `C[C@H](NC(=O)CN(CCNC(=O)CN(CCNC(=O)CCC(=O)O)C(=O)Cn1cnc2c(N)ncnc21)C(=O)Cn1ccc(N)nc1=O)C(=O)N[C@@H](CCCNC(=N)N)C(=O)N[C@@H](CCCNC(=N)N)C(=O)N[C@@H](CC(N)=O)C(=O)N[C@@H](CCCNC(=N)N)C(=O)N[C@@H](CCCNC(=N)N)C(=O)N[C@@H](CCCNC(=N)N)C(=O)N[C@@H](CCCNC(=N)N)C(=O)N[C@@H](Cc1c[nH]c2ccccc12)C(=O)N[C@@H](CCCNC(=N)N)C(=O)N[C@@H](CCC(=O)O)C(=O)N[C@@H](CCCNC(=N)N)C(=O)N[C@@H](CCC(N)=O)C(=O)N[C@H](CCCNC(=N)N)C(N)=O` yielded a Kd in assay [1] of 28 nM. Further, in assay [2], the Ratio worked out at 3.1.

As for `C[C@H](NC(=O)CCC(=O)O)C(=O)N[C@@H](CCCNC(=N)N)C(=O)N[C@@H](CCCNC(=N)N)C(=O)N[C@@H](CC(N)=O)C(=O)N[C@@H](CCCNC(=N)N)C(=O)N[C@@H](CCCNC(=N)N)C(=O)N[C@@H](CCCNC(=N)N)C(=O)N[C@@H](CCCNC(=N)N)C(=O)N[C@@H](Cc1c[nH]c2ccccc12)C(=O)N[C@@H](CCCNC(=N)N)C(=O)N[C@@H](CCC(=O)O)C(=O)N[C@@H](CCCNC(=N)N)C(=O)N[C@@H](CCC(N)=O)C(=O)N[C@H](CCCNC(=N)N)C(N)=O`, the Kd in assay [1] is 86 nM. Further, the Ratio in assay [2] came out at 1.

With `Cc1cn(CC(=O)N(CCNC(=O)CCC(=O)O)CC(=O)NCCN(CC(=O)N[C@@H](C)C(=O)N[C@@H](CCCNC(=N)N)C(=O)N[C@@H](CCCNC(=N)N)C(=O)N[C@@H](CC(N)=O)C(=O)N[C@@H](CCCNC(=N)N)C(=O)N[C@@H](CCCNC(=N)N)C(=O)N[C@@H](CCCNC(=N)N)C(=O)N[C@@H](CCCNC(=N)N)C(=O)N[C@@H](Cc2c[nH]c3ccccc23)C(=O)N[C@@H](CCCNC(=N)N)C(=O)N[C@@H](CCC(=O)O)C(=O)N[C@@H](CCCNC(=N)N)C(=O)N[C@@H](CCC(N)=O)C(=O)N[C@H](CCCNC(=N)N)C(N)=O)C(=O)Cn2ccc(N)nc2=O)c(=O)[nH]c1=O`, the dissociation constant Kd in assay [1] was found to be 27 nM. For the same molecule, the Ratio in assay [2] was 3.2.

`C[C@H](NC(=O)CN(CCNC(=O)CN(CCNC(=O)CN(CCNC(=O)CN(CCNC(=O)CCC(=O)O)C(=O)Cn1cnc2c(=O)[nH]c(N)nc21)C(=O)Cn1ccc(N)nc1=O)C(=O)Cn1cnc2c(=O)[nH]c(N)nc21)C(=O)Cn1ccc(N)nc1=O)C(=O)N[C@@H](CCCNC(=N)N)C(=O)N[C@@H](CCCNC(=N)N)C(=O)N[C@@H](CC(N)=O)C(=O)N[C@@H](CCCNC(=N)N)C(=O)N[C@@H](CCCNC(=N)N)C(=O)N[C@@H](CCCNC(=N)N)C(=O)N[C@@H](CCCNC(=N)N)C(=O)N[C@@H](Cc1c[nH]c2ccccc12)C(=O)N[C@@H](CCCNC(=N)N)C(=O)N[C@@H](CCC(=O)O)C(=O)N[C@@H](CCCNC(=N)N)C(=O)N[C@@H](CCC(N)=O)C(=O)N[C@H](CCCNC(=N)N)C(N)=O`: the affinity in assay [1], expressed as Kd, was 5.7 nM. The Ratio in assay [2] stood at 15.

Consider `CC(=O)NCCN(CC(=O)NCCN(CC(=O)NCCN(CC(=O)NCCN(CC(=O)NCCN(CC(=O)N[C@@H](CCCCN)C(=O)CN)C(=O)Cn1ccc(N)nc1=O)C(=O)Cn1cnc2c(O)nc(N)nc21)C(=O)Cn1ccc(N)nc1=O)C(=O)Cn1cnc2c(O)nc(N)nc21)C(=O)Cn1cc(C)c(=O)[nH]c1=O`, for which the Kd in assay [1] was over 100000 nM.

In the case of `C[C@H](NC(=O)CN(CCNC(=O)CN(CCNC(=O)CCC(=O)O)C(=O)Cn1cnc2c(=O)[nH]c(N)nc21)C(=O)Cn1ccc(N)nc1=O)C(=O)N[C@@H](CCCNC(=N)N)C(=O)N[C@@H](CCCNC(=N)N)C(=O)N[C@@H](CC(N)=O)C(=O)N[C@@H](CCCNC(=N)N)C(=O)N[C@@H](CCCNC(=N)N)C(=O)N[C@@H](CCCNC(=N)N)C(=O)N[C@@H](CCCNC(=N)N)C(=O)N[C@@H](Cc1c[nH]c2ccccc12)C(=O)N[C@@H](CCCNC(=N)N)C(=O)N[C@@H](CCC(=O)O)C(=O)N[C@@H](CCCNC(=N)N)C(=O)N[C@@H](CCC(N)=O)C(=O)N[C@H](CCCNC(=N)N)C(N)=O`, in assay [1], the affinity, expressed as Kd, was 16 nM. For the same molecule, the Ratio in assay [2] is 5.4.

As to `Cc1cn(CC(=O)N(CCNC(=O)CCC(=O)O)CC(=O)NCCN(CC(=O)NCCN(CC(=O)NCCN(CC(=O)NCCN(CC(=O)N[C@@H](C)C(=O)N[C@@H](CCCNC(=N)N)C(=O)N[C@@H](CCCNC(=N)N)C(=O)N[C@@H](CC(N)=O)C(=O)N[C@@H](CCCNC(=N)N)C(=O)N[C@@H](CCCNC(=N)N)C(=O)N[C@@H](CCCNC(=N)N)C(=O)N[C@@H](CCCNC(=N)N)C(=O)N[C@@H](Cc2c[nH]c3ccccc23)C(=O)N[C@@H](CCCNC(=N)N)C(=O)N[C@@H](CCC(=O)O)C(=O)N[C@@H](CCCNC(=N)N)C(=O)N[C@@H](CCC(N)=O)C(=O)N[C@H](CCCNC(=N)N)C(N)=O)C(=O)Cn2ccc(N)nc2=O)C(=O)Cn2cnc3c(=O)[nH]c(N)nc32)C(=O)Cn2ccc(N)nc2=O)C(=O)Cn2cnc3c(=O)[nH]c(N)nc32)c(=O)[nH]c1=O`, the Kd in assay [1] came to 5.4 nM. The Ratio in assay [2] turned out to be 16.

Regarding `C[C@H](NC(=O)CN(CCNC(=O)CN(CCNC(=O)CCC(=O)O)C(=O)Cn1ccc(N)nc1=O)C(=O)Cn1ccc(N)nc1=O)C(=O)N[C@@H](CCCNC(=N)N)C(=O)N[C@@H](CCCNC(=N)N)C(=O)N[C@@H](CC(N)=O)C(=O)N[C@@H](CCCNC(=N)N)C(=O)N[C@@H](CCCNC(=N)N)C(=O)N[C@@H](CCCNC(=N)N)C(=O)N[C@@H](CCCNC(=N)N)C(=O)N[C@@H](Cc1c[nH]c2ccccc12)C(=O)N[C@@H](CCCNC(=N)N)C(=O)N[C@@H](CCC(=O)O)C(=O)N[C@@H](CCCNC(=N)N)C(=O)N[C@@H](CCC(N)=O)C(=O)N[C@H](CCCNC(=N)N)C(N)=O`, binding in assay [1] was characterised by a dissociation constant (Kd) of 28 nM. Moreover, the Ratio in assay [2] stood at 3.1.

As to `C[C@H](NC(=O)CN(CCNC(=O)CCC(=O)O)C(=O)Cn1cnc2c(=O)[nH]c(N)nc21)C(=O)N[C@@H](CCCNC(=N)N)C(=O)N[C@@H](CCCNC(=N)N)C(=O)N[C@@H](CC(N)=O)C(=O)N[C@@H](CCCNC(=N)N)C(=O)N[C@@H](CCCNC(=N)N)C(=O)N[C@@H](CCCNC(=N)N)C(=O)N[C@@H](CCCNC(=N)N)C(=O)N[C@@H](Cc1c[nH]c2ccccc12)C(=O)N[C@@H](CCCNC(=N)N)C(=O)N[C@@H](CCC(=O)O)C(=O)N[C@@H](CCCNC(=N)N)C(=O)N[C@@H](CCC(N)=O)C(=O)N[C@H](CCCNC(=N)N)C(N)=O`, the equilibrium dissociation constant (Kd) in assay [1] is 30 nM. For the same molecule, in assay [2], the Ratio is 2.9.

Take `Cc1cn(CC(=O)N(CCNC(=O)CCC(=O)O)CC(=O)NCCN(CC(=O)NCCN(CC(=O)N[C@@H](C)C(=O)N[C@@H](CCCNC(=N)N)C(=O)N[C@@H](CCCNC(=N)N)C(=O)N[C@@H](CC(N)=O)C(=O)N[C@@H](CCCNC(=N)N)C(=O)N[C@@H](CCCNC(=N)N)C(=O)N[C@@H](CCCNC(=N)N)C(=O)N[C@@H](CCCNC(=N)N)C(=O)N[C@@H](Cc2c[nH]c3ccccc23)C(=O)N[C@@H](CCCNC(=N)N)C(=O)N[C@@H](CCC(=O)O)C(=O)N[C@@H](CCCNC(=N)N)C(=O)N[C@@H](CCC(N)=O)C(=O)N[C@H](CCCNC(=N)N)C(N)=O)C(=O)Cn2ccc(N)nc2=O)C(=O)Cn2cnc3c(=O)[nH]c(N)nc32)c(=O)[nH]c1=O`: in assay [1], the Kd was 17 nM. For the same molecule, the Ratio in assay [2] came to 5.1.

As for `C[C@H](NC(=O)CN(CCNC(=O)CN(CCNC(=O)CN(CCNC(=O)CCC(=O)O)C(=O)Cn1cnc2c(N)ncnc21)C(=O)Cn1cnc2c(=O)[nH]c(N)nc21)C(=O)Cn1ccc(N)nc1=O)C(=O)N[C@@H](CCCNC(=N)N)C(=O)N[C@@H](CCCNC(=N)N)C(=O)N[C@@H](CC(N)=O)C(=O)N[C@@H](CCCNC(=N)N)C(=O)N[C@@H](CCCNC(=N)N)C(=O)N[C@@H](CCCNC(=N)N)C(=O)N[C@@H](CCCNC(=N)N)C(=O)N[C@@H](Cc1c[nH]c2ccccc12)C(=O)N[C@@H](CCCNC(=N)N)C(=O)N[C@@H](CCC(=O)O)C(=O)N[C@@H](CCCNC(=N)N)C(=O)N[C@@H](CCC(N)=O)C(=O)N[C@H](CCCNC(=N)N)C(N)=O`, the Kd in assay [1] worked out at 15 nM. Moreover, in assay [2], the Ratio was found to be 5.7.

`C[C@H](NC(=O)CN(CCNC(=O)CN(CCNC(=O)CN(CCNC(=O)CCC(=O)O)C(=O)Cn1cnc2c(=O)[nH]c(N)nc21)C(=O)Cn1cnc2c(=O)[nH]c(N)nc21)C(=O)Cn1ccc(N)nc1=O)C(=O)N[C@@H](CCCNC(=N)N)C(=O)N[C@@H](CCCNC(=N)N)C(=O)N[C@@H](CC(N)=O)C(=O)N[C@@H](CCCNC(=N)N)C(=O)N[C@@H](CCCNC(=N)N)C(=O)N[C@@H](CCCNC(=N)N)C(=O)N[C@@H](CCCNC(=N)N)C(=O)N[C@@H](Cc1c[nH]c2ccccc12)C(=O)N[C@@H](CCCNC(=N)N)C(=O)N[C@@H](CCC(=O)O)C(=O)N[C@@H](CCCNC(=N)N)C(=O)N[C@@H](CCC(N)=O)C(=O)N[C@H](CCCNC(=N)N)C(N)=O` showed a Kd in assay [1] of 8.7 nM. In addition, in assay [2], the Ratio was 9.9.

Regarding `CC(=O)N(CCNC(=O)NCC(=O)O)CC(=O)N[C@H](C)C(=O)N[C@@H](CCCNC(=N)N)C(=O)N[C@@H](CCCNC(=N)N)C(=O)N[C@@H](CC(N)=O)C(=O)N[C@@H](CCCNC(=N)N)C(=O)N[C@@H](CCCNC(=N)N)C(=O)N[C@@H](CCCNC(=N)N)C(=O)N[C@@H](CCCNC(=N)N)C(=O)N[C@@H](Cc1c[nH]c2ccccc12)C(=O)N[C@@H](CCCNC(=N)N)C(=O)N[C@@H](CCC(=O)O)C(=O)N[C@@H](CCCNC(=N)N)C(=O)N[C@@H](CCC(N)=O)C(=O)N[C@H](CCCNC(=N)N)C(N)=O`, the dissociation constant Kd in assay [1] stood at 44 nM. Besides, the Ratio in assay [2] turned out to be 2.

For `C[C@H](NC(=O)CN(CCNC(=O)CN(CCNC(=O)CN(CCNC(=O)CCC(=O)O)C(=O)Cn1ccc(N)nc1=O)C(=O)Cn1ccc(N)nc1=O)C(=O)Cn1ccc(N)nc1=O)C(=O)N[C@@H](CCCNC(=N)N)C(=O)N[C@@H](CCCNC(=N)N)C(=O)N[C@@H](CC(N)=O)C(=O)N[C@@H](CCCNC(=N)N)C(=O)N[C@@H](CCCNC(=N)N)C(=O)N[C@@H](CCCNC(=N)N)C(=O)N[C@@H](CCCNC(=N)N)C(=O)N[C@@H](Cc1c[nH]c2ccccc12)C(=O)N[C@@H](CCCNC(=N)N)C(=O)N[C@@H](CCC(=O)O)C(=O)N[C@@H](CCCNC(=N)N)C(=O)N[C@@H](CCC(N)=O)C(=O)N[C@H](CCCNC(=N)N)C(N)=O`, the affinity in assay [1], expressed as Kd, was 34 nM. Besides, the Ratio in assay [2] is 2.5.
